Source: patent US10071164B2, “Estrogen-related receptor alpha based protac compounds and associated methods of use” (Yale University, priority 2014, dated 2018)

molecular target: T1, ERRα (Homo sapiens, UniProt P11474); assay: ERRα degradation in MCF-7 cells; format: cell-based; parameters: endogenous in cells; host or cells: MCF-7 (ATCC); conditions: MCF7, column A, read-out: ERRα Degradation Dmax (Estimated) MCF-7 cells
T1 sequence (P11474 1-423): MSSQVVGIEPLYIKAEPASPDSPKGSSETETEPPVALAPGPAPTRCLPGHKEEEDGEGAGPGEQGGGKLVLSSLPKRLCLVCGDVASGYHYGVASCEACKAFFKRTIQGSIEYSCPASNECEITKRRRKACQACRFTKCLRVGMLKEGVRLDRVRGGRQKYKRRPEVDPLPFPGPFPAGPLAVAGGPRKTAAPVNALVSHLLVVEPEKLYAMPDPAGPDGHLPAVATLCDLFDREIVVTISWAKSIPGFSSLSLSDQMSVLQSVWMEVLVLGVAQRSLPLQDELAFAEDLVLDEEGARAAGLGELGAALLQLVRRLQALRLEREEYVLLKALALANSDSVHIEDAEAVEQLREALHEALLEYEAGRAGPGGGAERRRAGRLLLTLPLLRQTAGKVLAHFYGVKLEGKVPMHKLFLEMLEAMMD
Method: Human MDA-MB-231 and MCF7 cells (purchased authenticated ATCC cell lines) were cultured in complete growth medium (Dulbecco's modified Eagle's medium (DMEM)/F12 supplemented with 10% FBS; Life Technologies) and grown at 37° C. with 5% CO2. THP-1 cells (ATCC) were cultured in RPMI 1640+10% FBS and were grown at 37° C. with 5% CO2. For cellular degradation of ERRα, MCF7 cells were seeded in a 24-well plate at 70% confluency, allowed to attach overnight, and incubated with the indicated compounds. For cellular degradation of RIPK2, 5×10^6 cells were incubated with the indicated compounds. When indicated, a 1-hour pretreatment with 1 μM epoxomicin was performed before the addition of compound. When indicated for washout studies, after PROTAC treatment, cells were washed repeatedly with PBS and incubated with complete medium for the indicated time before harvesting. The THP1 cell line has been authenticated using the Promega GenePrint10 kit to generate a STR Profile for comparison to the expected profile reported by ATCC. Cells were also routinely tested and negative for mycoplasma. Cell lines were routinely tested for mycoplasma contamination at Clongen (Gaithersburg, Md.).
Total protein concentrations of tissue homogenates and cell lysates were determined by Pierce BCA kit (Thermo Fisher). Homogenates or lysates were separated on 4-12% NuPAGE gels (Life Technologies) and transferred onto PVDF membranes (iBlot; Life Technologies). Membranes were blocked with 5% non-fat milk in TBST (0.1% Tween-20 in Tris-Buffered Saline) before overnight incubation with indicated antibodies. After incubation with the appropriate horseradish peroxidase-conjugated secondary antibodies, the bands were visualized by enhanced chemiluminescence (Pierce West Femto ECL). The intensity of the bands was quantified with Bio-Rad Quantity One software. When the IRDye secondary antibodies were used, the infrared signal was detected using an Odyssey scanner (Li-COR Biosciences) and the densitometry was performed using the Odyssey 2.1 Analyser software. The IRDye secondary antibodies anti-mouse (926-32212) and anti-mouse (926-68072) were purchased from Li-COR Biosciences and used at a 1:5,000 dilution. Statistical analysis of tissue densitometry levels were performed with GraphPad Prism software using the indicated statistical test.
(§1) Using the methods as described herein, the following exemplary PROTAC compounds were prepared (see Table below). The exemplary compounds were also assayed for their ability to effectuate the degration of ERRα in either MCF-7 cells or ST-486 cells. Thus, in certain embodiments, the description provides the compounds below, including compositions comprising effective amount of a compound as listed below or a derivative, analog, or a prodrug of the same, in combination with at least one of a pharmaceutically acceptable carrier, another active agent, including a second PROTAC molecule as described herein or a combination thereof. In additional embodiments, the disclosure provides a method of treating a disease or condition in a subject in need thereof, comprising administering a composition comprising an effective amount of a compound listed below, wherein the composition is effective for treating or ameliorating a symptom of the disease or condition.
(§2) Legend for following table: A=ERRα Degradation Dmax (Estimated) MCF-7 cells; B=ERRα Degradation DC50 (Estimated) MCF-7 cells; C=ERRα Degradation Dmax (Estimated) ST-486 cells; D=ERRα Degradation DC50 (Estimated) ST-486 cells

SMILES | Dmax
COc1cc(/C=C2\SC(=O)N(CCOCCC(=O)N[C@H](C(=O)N3CC(O)C[C@H]3C(=O)NCc3ccc(-c4scnc4C)cc3)C(C)(C)C)C2=O)ccc1Oc1ccc(C#N)cc1C(F)(F)F (stereo partly drawn) [ARV N000020] | 98%
COc1cc(/C=C2\SC(=O)N(CCOCCOCCOCCOc3cc(-c4scnc4C)ccc3CNC(=O)[C@@H]3C[C@@H](O)CN3C(=O)[C@H](C(C)C)N3Cc4ccccc4C3=O)C2=O)ccc1Oc1ccc(C#N)cc1C(F)(F)F [ARV N000198] | 90%
COc1cc(/C=C2\SC(=O)N(CCOCCOCCCOCCOCCOc3cc(-c4scnc4C)ccc3CNC(=O)[C@@H]3C[C@@H](O)CN3C(=O)[C@H](C(C)C)N3Cc4ccccc4C3=O)C2=O)ccc1Oc1ccc(C#N)cc1C(F)(F)F [ARV N000199] | 90%
COc1cc(/C=C2\SC(=O)N(CCOCCOCCCCOCCCCOCCOCC(=O)N[C@H](C(=O)N3C[C@H](O)C[C@H]3C(=O)NCc3ccc(-c4scnc4C)cc3)C(C)(C)C)C2=O)ccc1Oc1ccc(C#N)cc1C(F)(F)F [ARV N000200] | 80%
COc1cc(/C=C2\SC(=O)N(CCOCCOCCCCCOCCCCCOCCOCC(=O)N[C@H](C(=O)N3C[C@H](O)C[C@H]3C(=O)NCc3ccc(-c4scnc4C)cc3)C(C)(C)C)C2=O)ccc1Oc1ccc(C#N)cc1C(F)(F)F [ARV N000201] | 90%
COc1cc(/C=C2\SC(=O)N(CCOCCC(=O)N[C@H](C(=O)N3C[C@@H](O)C[C@H]3C(=O)NCc3ccc(-c4scnc4C)cc3)C(C)(C)C)C2=O)ccc1Oc1ccc(C#N)cc1C(F)(F)F [ARV N000203] | 40%
COc1cc(/C=C2\SC(=O)N(CCOCCOCCOCCOCCOc3cc(-c4scnc4C)ccc3CNC(=O)[C@@H]3C[C@@H](O)CN3C(=O)[C@H](C(C)C)N3Cc4ccccc4C3=O)C2=O)ccc1Oc1ccc(C#N)cc1C(F)(F)F [ARV N000219] | 98%
COc1cc(/C=C2\SC(=O)N(CCOCCOCCOCCOCCOCCOc3cc(-c4scnc4C)ccc3CNC(=O)[C@@H]3C[C@@H](O)CN3C(=O)[C@H](C(C)C)N3Cc4ccccc4C3=O)C2=O)ccc1Oc1ccc(C#N)cc1C(F)(F)F [ARV N000220] | 85%
COc1cc(/C=C2\SC(=O)N(CCOCCCOCCCOc3cc(-c4scnc4C)ccc3CNC(=O)[C@@H]3C[C@@H](O)CN3C(=O)[C@H](C(C)C)N3Cc4ccccc4C3=O)C2=O)ccc1Oc1ccc(C#N)cc1C(F)(F)F [ARV N000222] | 90%
COc1cc(/C=C2\SC(=O)N(CCOCCOCCOCCOCCOCC(=O)N[C@H](C(=O)N3C[C@H](O)C[C@H]3C(=O)NCc3ccc(-c4scnc4C)cc3)C(C)(C)C)C2=O)ccc1Oc1ccc(C#N)cc1C(F)(F)F [ARV N000223] | 80%
COc1cc(/C=C2\SC(=O)N(CCCCCOCCOCCC(=O)N[C@H](C(=O)N3CC(O)C[C@H]3C(=O)NCc3ccc(-c4scnc4C)cc3)C(C)(C)C)C2=O)ccc1Oc1ccc(C#N)cc1C(F)(F)F (stereo partly drawn) [ARV N000224] | 90%
COc1cc(/C=C2\SC(=O)N(CCOCCOCCCCCOCCOCCOc3cc(-c4scnc4C)ccc3CNC(=O)[C@@H]3C[C@@H](O)CN3C(=O)[C@H](C(C)C)N3Cc4ccccc4C3=O)C2=O)ccc1Oc1ccc(C#N)cc1C(F)(F)F [ARV N000231] | 98%
COc1cc(/C=C2\SC(=O)N(CCOCCOCCCCCOCCCCCOCCOCCOc3cc(-c4scnc4C)ccc3CNC(=O)[C@@H]3C[C@@H](O)CN3C(=O)[C@H](C(C)C)N3Cc4ccccc4C3=O)C2=O)ccc1Oc1ccc(C#N)cc1C(F)(F)F [ARV N000232] | 60%
COc1cc(/C=C2\SC(=O)N(CCCCOCCCCOCCCCOc3cc(-c4scnc4C)ccc3CNC(=O)[C@@H]3C[C@@H](O)CN3C(=O)[C@H](C(C)C)N3Cc4ccccc4C3=O)C2=O)ccc1Oc1ccc(C#N)cc1C(F)(F)F [ARV N000233] | 60%
COc1cc(/C=C2\SC(=O)N(CCOCCOCCOCCOCCOCCOCC(=O)N[C@H](C(=O)N3C[C@H](O)C[C@H]3C(=O)NCc3ccc(-c4scnc4C)cc3)C(C)(C)C)C2=O)ccc1Oc1ccc(C#N)cc1C(F)(F)F [ARV N000234] | 98%
COc1cc(/C=C2\SC(=O)N(CCOCCOCCCOCCOCCOCC(=O)N[C@H](C(=O)N3C[C@H](O)C[C@H]3C(=O)NCc3ccc(-c4scnc4C)cc3)C(C)(C)C)C2=O)ccc1Oc1ccc(C#N)cc1C(F)(F)F [ARV N000235] | 95%

molecular target: T1, ERRα; assay: ERRα degradation in ST-486 cells; format: cell-based; parameters: degration of ERRα in either MCF-7 cells or ST-486 cells; endogenous in cells; host or cells: ST-486; conditions: ST486, column C, read-out: ERRα Degradation Dmax (Estimated) ST-486 cells
Method: as §1, §2

SMILES | Dmax
COc1cc(/C=C2\SC(=O)N(CCCCOCCOCCOCC(=O)N[C@H](C(=O)N3C[C@H](O)C[C@H]3C(=O)NCc3ccc(-c4scnc4C)cc3)C(C)(C)C)C2=O)ccc1Oc1ccc(C#N)cc1C(F)(F)F [ARV N000236] | 90%
COc1cc(/C=C2\SC(=O)N(CCOCCOCCCCOCCOCCOCC(=O)N[C@H](C(=O)N3C[C@H](O)C[C@H]3C(=O)NCc3ccc(-c4scnc4C)cc3)C(C)(C)C)C2=O)ccc1Oc1ccc(C#N)cc1C(F)(F)F [ARV N000244] | 80%
COc1cc(/C=C2\SC(=O)N(CCCCOCCCCOCCCCCCC(=O)N[C@H](C(=O)N3C[C@H](O)C[C@H]3C(=O)NCc3ccc(-c4scnc4C)cc3)C(C)(C)C)C2=O)ccc1Oc1ccc(C#N)cc1C(F)(F)F [ARV N000245] | 40%
COc1cc(/C=C2\SC(=O)N(CCCCOCCCCOCCCCCC(=O)N[C@H](C(=O)N3C[C@H](O)C[C@H]3C(=O)NCc3ccc(-c4scnc4C)cc3)C(C)(C)C)C2=O)ccc1Oc1ccc(C#N)cc1C(F)(F)F [ARV N000246] | 90%
COc1cc(/C=C2\SC(=O)N(CCOCCOCCCCOCCOCCOc3cc(-c4scnc4C)ccc3CNC(=O)[C@@H]3C[C@@H](O)CN3C(=O)[C@H](C(C)C)N3Cc4ccccc4C3=O)C2=O)ccc1Oc1ccc(C#N)cc1C(F)(F)F [ARV N000265] | 80%
COc1cc(/C=C2\SC(=O)N(CCOCCOCCCCOCCCCOCCOCCOc3cc(-c4scnc4C)ccc3CNC(=O)[C@@H]3C[C@@H](O)CN3C(=O)[C@H](C(C)C)N3Cc4ccccc4C3=O)C2=O)ccc1Oc1ccc(C#N)cc1C(F)(F)F [ARV N000266] | 50%
COc1cc(/C=C2\SC(=O)N(CCOCCOCCCCCOCCOCCOCC(=O)N[C@H](C(=O)N3C[C@H](O)C[C@H]3C(=O)NCc3ccc(-c4scnc4C)cc3)C(C)(C)C)C2=O)ccc1Oc1ccc(C#N)cc1C(F)(F)F [ARV N000267] | 80%
COc1cc(/C=C2\SC(=O)N(Cc3ccccc3CC(=O)N[C@H](C(=O)N3C[C@H](O)C[C@H]3C(=O)NCc3ccc(-c4scnc4C)cc3)C(C)(C)C)C2=O)ccc1Oc1ccc(C#N)cc1C(F)(F)F [ARV N000381] | 98%
COc1cc(/C=C2\SC(=O)N(Cc3cccc(CC(=O)N[C@H](C(=O)N4C[C@H](O)C[C@H]4C(=O)NCc4ccc(-c5scnc5C)cc4)C(C)(C)C)c3)C2=O)ccc1Oc1ccc(C#N)cc1C(F)(F)F [ARV N000382] | 98%
COc1cc(/C=C2\SC(=O)N(CCOCCOCCOCC(=O)N[C@H](C(=O)N3C[C@H](O)C[C@H]3C(=O)NCc3ccc(-c4scnc4C)cc3)C(C)(C)C)C2=O)ccc1Oc1ccccc1C(F)(F)F [ARV N000383] | 98%
COc1cc(/C=C2\SC(=O)N(Cc3ccc(CC(=O)N[C@H](C(=O)N4C[C@H](O)C[C@H]4C(=O)NCc4ccc(-c5scnc5C)cc4)C(C)(C)C)cc3)C2=O)ccc1Oc1ccc(C#N)cc1C(F)(F)F [ARV N000413] | 98%
